Target: T1, androgen receptor (Rattus norvegicus, UniProt P15207)
T1 construct: on receptors in cystosol from animal target organs; from tissue; host or cells: prostate cytosol of castrated rat
T1 sequence (P15207 1-902): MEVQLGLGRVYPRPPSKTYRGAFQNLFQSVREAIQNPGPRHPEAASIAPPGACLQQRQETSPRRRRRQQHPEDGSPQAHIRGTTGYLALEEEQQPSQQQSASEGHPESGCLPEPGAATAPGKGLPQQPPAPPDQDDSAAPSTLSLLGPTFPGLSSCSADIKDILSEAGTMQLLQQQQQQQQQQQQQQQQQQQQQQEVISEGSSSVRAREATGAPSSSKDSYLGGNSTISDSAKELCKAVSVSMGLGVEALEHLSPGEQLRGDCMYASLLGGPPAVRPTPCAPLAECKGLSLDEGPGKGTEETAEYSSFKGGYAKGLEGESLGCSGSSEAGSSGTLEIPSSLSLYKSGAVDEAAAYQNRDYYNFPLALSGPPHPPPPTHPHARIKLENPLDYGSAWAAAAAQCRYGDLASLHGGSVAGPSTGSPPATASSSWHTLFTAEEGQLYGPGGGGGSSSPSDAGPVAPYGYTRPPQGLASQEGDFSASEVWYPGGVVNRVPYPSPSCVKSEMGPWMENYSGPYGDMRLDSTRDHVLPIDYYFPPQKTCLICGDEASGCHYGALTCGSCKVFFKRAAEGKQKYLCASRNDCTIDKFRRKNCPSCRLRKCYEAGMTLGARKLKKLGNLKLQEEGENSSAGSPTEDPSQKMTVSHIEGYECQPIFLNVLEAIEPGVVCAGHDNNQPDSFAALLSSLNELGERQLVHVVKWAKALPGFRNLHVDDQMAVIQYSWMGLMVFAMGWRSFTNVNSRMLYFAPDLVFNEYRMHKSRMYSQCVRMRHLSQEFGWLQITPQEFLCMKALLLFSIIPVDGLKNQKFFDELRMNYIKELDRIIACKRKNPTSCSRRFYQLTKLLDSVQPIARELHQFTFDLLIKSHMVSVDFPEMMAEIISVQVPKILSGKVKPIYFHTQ
Test: Measurement of the androgen receptor binding affinity (competitive binding with 3H-Metribolone tracer in prostate cytosol)
Conditions: prostate cytosol of the castrated rat; tracer 3H-Metribolone; reference substance DHT = 100%; 0-4° C., 18 hours
Procedure: Measurement of the androgen receptor binding affinity:
The receptor binding affinity was determined by competitive binding of a specifically binding 3H-labeled hormone (tracer) and the compound to be tested on receptors in cystosol from animal target organs. In this case, receptor saturation and reaction equilibrium were desired.
The tracer and increasing concentrations of the compound to be tested (competitor) were co-incubated at 0-4° C. over 18 hours with the receptor-containing cytosol fraction. After separation of the unbonded tracer with carbon-dextran suspension, the receptor-bonded tracer portion was measured for each concentration and the IC50 was determined from the concentration series.
The following incubation conditions were selected:
Prostate cytosol of the castrated rat; prostates stored at −30° C.;

Structure (SMILES)	RBA % (relative molar binding affinity)
CC1CC2=CC(=O)CCC2(C)C2CCC3(C)C(O)C(Cl)=CCC3C12 (stereo not drawn) [Compound 2, 17-Chloro-17aβ-hydroxy-7α-methyl-17a-homoandrosta-4,16-dien-3-one]	46%
C[C@]12CC[C@H]3[C@@H](CCC4=C(C(F)(F)F)C(=O)CC[C@@]43C)[C@@H]1CC=C(Cl)[C@@H]2O [Compound 9, 17-Chloro-17aβ-hydroxy-4-trifluoromethyl-17a-homoandrosta-4,16-dien-3-one]	51%
C[C@]12CC[C@H]3[C@@H](CCC4=CC(=O)CC[C@@H]43)[C@@H]1CC=C(Cl)[C@@H]2O [Compound 17, 17-Chloro-17aβ-hydroxy-17a-homo-estra-4,16-dien-3-one]	80%
CC1CC2=CC(=O)CCC2C2CCC3(C)C(O)C(Cl)=CCC3C12 (stereo not drawn) [Compound 18, 17-Chloro-17aβ-hydroxy-7α-methyl-17a-homo-estra-4,16-dien-3-one]	105%
CC12CCC3C4CCC(=O)C(O)=C4CCC3C1CC=C(Cl)C2O (centres unmarked) [Compound 21, 17-Chloro-4,17aβ-dihydroxy-17a-homo-estra-4,16-dien-3-one]	70%
